Measured values: patent publication US5455222A, “1-substituted-5-thiomethylthiocyanato-1H-tetrazoles, compositions containing them and their use as antimicrobial and marine antifouling agents” (The Dow Chemical Company, priority 1994, dated 1995)
Converted amounts (≈) assume the structure as drawn.

Assays:
Proteus vulgaris (Pv) = assay: Minimum inhibitory concentration (MIC), bacteria in nutrient agar; assay type: cell-based, Proteus vulgaris ATCC 881; settings: 48 hours
Protocol: (§1) The minimum inhibitory concentration (MIC) for the compounds listed in Table I is determined for 9 bacteria, using nutrient agar, and 7 yeast and fungi, using malt yeast agar. A one percent solution of the test compound is prepared in a mixture of acetone and water.
(§2) Nutrient agar is prepared at pH 6.8, representing a neutral medium, and at pH 8.2, representing an alkaline medium. The nutrient agars are prepared by adding 23 g of nutrient agar to one liter of deionized water. In addition, the alkaline medium is prepared by adjusting a 0.04M solution of N-[tris-(hydroxymethyl)methyl]glycine buffered deionized water with concentrated sodium hydroxide to a pH of 8.5.
(§3) The test tubes containing the agar are cooled in a water bath until the temperature of the agar is 48° C. Then, an appropriate amount of the one percent solution of the test compound is added (except in the controls where no compound is added) to the respective test tubes so that the final concentrations are 500, 250, 100, 50, 25, 10, 5, 2.5, 1.0 and zero parts per million of the test compound in the agar, thus having a known concentration of test compound dispersed therein. The contents of the test tubes are then transferred to respective petri plates. After drying for 24 hours, the petri plates containing nutrient agar are inoculated with bacteria and those containing malt yeast agar are inoculated with yeast and fungi.
(§4) The inoculation with bacteria is accomplished by using the following procedure. Twenty-four hour-cultures of each of the bacteria are prepared by incubating the respective bacteria in tubes containing nutrient broth for 24 hours at 30° C. in a shaker. Dilutions of each of the 24 hour-cultures are made so that nine separate suspensions (one for each of the nine test bacteria) are made, each containing 10^8 colony forming units (CFU) per mL of suspension of a particular bacteria. Aliquots of 0.3 mL of each of the bacterial suspensions are used to fill the individual wells of Steer's Replicator. For each microbial suspension, 0.3 mL was used to fill three wells (i.e., three wells of 0.3 mL each) so that for the nine different bacteria, 27 wells are filled. The Steer's Replicator is then used to inoculate both the neutral and alkaline pH nutrient agar petri plates.
(§5) The inoculated petri plates are incubated at 30° C. for 48 hours and then read to determine if the test compound which is incorporated into the agar prevented growth of the respective bacteria.
(§6) Table II lists the bacteria, yeast and fungi used in the MIC test described above along with their respective American Type Culture Collection (ATCC) identification numbers.
(§7) In Tables III and IV, the MIC values of the compounds described in Table I as compared to the MIC of a standard commercial preservative (with 1-(3-chloroallyl)-3,5,7-triaza-1-azoniaadamantane chloride as the active agent and referred to in Tables III and IV as "STANDARD I") are set forth for the bacteria organisms and yeast/fungi organisms which are listed in Table II.

[1] = test system: Pseudomonas aeruginosa (PRD-10); assay: as above; assay type: cell-based, Pseudomonas aeruginosa ATCC 15442; settings: 48 hours
Protocol: as §1, §2, §3, §4, §5, §6, §7

[2] = test system: Saccharomyces cerevisiae (Sc); assay: Minimum inhibitory concentration (MIC), yeast/fungi in malt yeast agar; assay type: cell-based, Saccharomyces cerevisiae ATCC 4105; settings: 30° C., 48 hours for yeast
Protocol: as §1
(§8) Malt yeast agar is prepared by adding 3 g yeast extract and 45 g malt agar per liter of deionized water. The specific agar is dispensed in 30 mL aliquots into 25×200 mm test tubes, capped and autoclaved for 15 minutes at 115° C.
as §3
(§9) The inoculation with the yeast and fungi is accomplished as follows. Cultures of yeast and fungi are incubated for seven days on malt yeast agar at 30° C. These cultures are used to prepare suspensions by the following procedure. A suspension of each organism is prepared by adding 10 mL of sterile saline and 10 microliters of octylphenoxy polyethoxy ethanol to the agar slant of yeast or fungi. The sterile saline/octylphenoxy polyethoxy ethanol solution is then agitated with a sterile swab to suspend the microorganism grown on the slant. Each resulting suspension is diluted into sterile saline (1 part suspension to 9 parts sterile saline). Aliquots of these dilutions are placed in individual wells of Steer's Replicator and petri plates inoculated as previously described. The petri plates are incubated at 30° C. and read after 48 hours for yeast and 72 hours for fungi.
as §6, §7

[3] = test system: Klebsiella pneumoniae (Kp); assay: Minimum inhibitory concentration (MIC), bacteria in nutrient agar; assay type: cell-based, Klebsiella pneumoniae ATCC 8308; settings: 48 hours
Protocol: as §1, §2, §3, §4, §5, §6, §7

[4] = test system: Pseudomonas aeruginosa (Pa); assay: as above; assay type: cell-based, Pseudomonas aeruginosa ATCC 10145; settings: 48 hours
Protocol: as §1, §2, §3, §4, §5, §6, §7

[5] = test system: Enterobacter aerogenes (Ea); assay: as above; assay type: cell-based, Enterobacter aerogenes ATCC 13048; settings: Klebsiella aerogenes, 48 hours
Protocol: as §1, §2, §3, §4, §5, §6, §7

[6] = test system: Penicillium chrysogenum (Pc); assay: Minimum inhibitory concentration (MIC), yeast/fungi in malt yeast agar; assay type: cell-based, Penicillium chrysogenum ATCC 9480; settings: 30° C., 72 hours for fungi
Protocol: as §1, §8, §3, §9, §6, §7

Trichoderma viride (Tv) = assay: as above; assay type: cell-based, Trichoderma viride ATCC 8678; settings: 30° C., 72 hours for fungi
Protocol: as §1, §8, §3, §9, §6, §7

[7] = test system: Aureobasidium pullulan (Ap); assay: as above; assay type: cell-based, Aureobasidium pullulan ATCC 16622; settings: 30° C., read after 48 hours for yeast and 72 hours for fungi
Protocol: as §1, §8, §3, §9, §6, §7

marine organisms = assay: Marine antifouling activity, coated test panels exposed to marine environment; settings: 6 weeks, scale 10 (completely free of growth) to 0 (completely covered)
Protocol: Test panels are prepared from clear, rigid polyvinyl chloride film that is 0.381×10^-3 m thick and has one textured surface. The test panels are 0.1524 m by 0.1524 m squares that have 0.00635 m holes punched at corners on 0.127 m centers. A 0.102 square template, with a 0.067 m diameter hole at the center, is attached to the center of the textured surface of the test panels.
A candidate marine antifoulant compound (1.0 g) is stirred into a resinous latex binder (9.0 g). A portion of the compound/binder mixture (1.5 g) is added to the center of the test panel and uniformly spread over the circular area inside the template.
Water is added dropwise as needed to properly spread the compound/binder mixture. The template prevents the compound/binder mixture from spreading beyond the uncovered area. […] The template is then removed. The test panel is then allowed to dry for 8 to 12 hours at room temperature.
Two test panels are prepared for each candidate marine antifoulant compound. Two control test panels are also prepared by only treating with the resinous latex binder. One test panel of each candidate marine […] compound is attached over a white background to the topside of an exposure support apparatus. The second test panel is attached over a black background to the underside of the exposure support apparatus. The exposure support apparatus is placed horizontally 0.0254 m under a marine surface with the white background topside facing up.
After being removed from the exposure support apparatus, each test panel is inspected and rated for marine organism growth on both the treated and untreated areas of the test panel. The marine organisms present on the treated and untreated areas are noted. The presence of algae spores and bacterial slime are noted but not included in rating each test panel. The test panels are rated on a scale from 10 (representing completely free of marine organism growth) to 0 (representing completely covered with marine organism growth).
In addition, test panels were prepared using tributyl tin oxide, a known marine antifouling compound.

Aspergillus niger (An) = assay: Minimum inhibitory concentration (MIC), yeast/fungi in malt yeast agar; assay type: cell-based, Aspergillus niger ATCC 16404; settings: 30° C., 72 hours for fungi
Protocol: as §1, §8, §3, §9, §6, §7

Escherichia coli (Ec) = assay: Minimum inhibitory concentration (MIC), bacteria in nutrient agar; assay type: cell-based, Escherichia coli ATCC 11229; settings: 48 hours
Protocol: as §1, §2, §3, §4, §5, §6, §7

[8] = test system: Staphylococcus aureus (Sa); assay: as above; assay type: cell-based, Staphylococcus aureus ATCC 6538; settings: 48 hours
Protocol: as §1, §2, §3, §4, §5, §6, §7

[9] = test system: Salmonella choleraesuis (Sc); assay: as above; assay type: cell-based, Salmonella choleraesuis ATCC 10708; settings: Salmonella enterica, 48 hours
Protocol: as §1, §2, §3, §4, §5, §6, §7

Candida albicans (Ca) = assay: Minimum inhibitory concentration (MIC), yeast/fungi in malt yeast agar; assay type: cell-based, Candida albicans ATCC 10231; settings: 30° C., 48 hours for yeast
Protocol: as §1, §8, §3, §9, §6, §7

Bacillus subtilis (Bs) = assay: Minimum inhibitory concentration (MIC), bacteria in nutrient agar; assay type: cell-based, Bacillus subtilis ATCC 8473; settings: 48 hours
Protocol: as §1, §2, §3, §4, §5, §6, §7

Fusarium oxysporum (Fo) = assay: Minimum inhibitory concentration (MIC), yeast/fungi in malt yeast agar; assay type: cell-based, Fusarium oxysporum ATCC 48112; settings: 30° C., 72 hours for fungi
Protocol: as §1, §8, §3, §9, §6, §7

**Q.** How did the MIC (Proteus vulgaris (Pv); nutrient agar pH 6.8, 30° C.) turn out when `N#CSCSc1nnnn1-c1ccccc1` [Example I, 1-Phenyl-5-thiomethylthiocyanato-1H-tetrazole] was run?
**A.** 25 µg/mL (≈ 100 µM)

**Q.** And the MIC (Proteus vulgaris (Pv); nutrient agar pH 8.2, 30° C.)?
**A.** 100 µg/mL (≈ 401 µM)

**Q.** And the MIC ([1]; nutrient agar pH 6.8, 30° C.)?
**A.** 250 µg/mL (≈ 1000 µM)

**Q.** And the MIC ([1]; nutrient agar pH 8.2, 30° C.)?
**A.** 250 µg/mL (≈ 1000 µM)

**Q.** And the MIC [2]?
**A.** 5 µg/mL (≈ 20.1 µM)

**Q.** What about the MIC ([3]; nutrient agar pH 6.8, 30° C.) of the same compound?
**A.** 100 µg/mL (≈ 401 µM)

**Q.** What about the MIC ([3]; nutrient agar pH 8.2, 30° C.) of the same compound?
**A.** 100 µg/mL (≈ 401 µM)

**Q.** What about the MIC ([4]; nutrient agar pH 6.8, 30° C.) of the same compound?
**A.** 100 µg/mL (≈ 401 µM)

**Q.** And the MIC ([4]; nutrient agar pH 8.2, 30° C.)?
**A.** 100 µg/mL (≈ 401 µM)

**Q.** What about the MIC ([5]; nutrient agar pH 6.8, 30° C.) of the same compound?
**A.** 250 µg/mL (≈ 1000 µM)

**Q.** And the MIC ([5]; nutrient agar pH 8.2, 30° C.)?
**A.** 500 µg/mL (≈ 2010 µM)

**Q.** What about the MIC [6] of the same compound?
**A.** 2.5 µg/mL (≈ 10 µM)

**Q.** What about the MIC (Trichoderma viride (Tv)) of the same compound?
**A.** 25 µg/mL (≈ 100 µM)

**Q.** And the MIC [7]?
**A.** 2.5 µg/mL (≈ 10 µM)

**Q.** What about the “Marine Antifouling Rating, 6 Week Test, Bottom Panel” value (marine organisms; bottom panel (black background)) of the same compound?
**A.** 9

**Q.** What about the “Marine Antifouling Rating, 6 Week Test, Top Panel” value (marine organisms; top panel (white background)) of the same compound?
**A.** 9

**Q.** And the MIC (Aspergillus niger (An))?
**A.** 5 µg/mL (≈ 20.1 µM)

**Q.** And the MIC (Escherichia coli (Ec); nutrient agar pH 6.8, 30° C.)?
**A.** 50 µg/mL (≈ 201 µM)

**Q.** What about the MIC (Escherichia coli (Ec); nutrient agar pH 8.2, 30° C.) of the same compound?
**A.** 250 µg/mL (≈ 1000 µM)

**Q.** What about the MIC ([8]; nutrient agar pH 6.8, 30° C.) of the same compound?
**A.** 25 µg/mL (≈ 100 µM)

**Q.** And the MIC ([8]; nutrient agar pH 8.2, 30° C.)?
**A.** 50 µg/mL (≈ 201 µM)

**Q.** And the MIC ([9]; nutrient agar pH 6.8, 30° C.)?
**A.** 100 µg/mL (≈ 401 µM)

**Q.** What about the MIC ([9]; nutrient agar pH 8.2, 30° C.) of the same compound?
**A.** 250 µg/mL (≈ 1000 µM)

**Q.** What about the MIC (Candida albicans (Ca)) of the same compound?
**A.** 25 µg/mL (≈ 100 µM)

**Q.** And the MIC (Bacillus subtilis (Bs); nutrient agar pH 6.8, 30° C.)?
**A.** < 10 µg/mL

**Q.** And the MIC (Bacillus subtilis (Bs); nutrient agar pH 8.2, 30° C.)?
**A.** 50 µg/mL (≈ 201 µM)

**Q.** And the MIC (Fusarium oxysporum (Fo))?
**A.** 10 µg/mL (≈ 40.1 µM)
